{"source": "paper PMC5577615", "about": "“Myticalins: A Novel Multigenic Family of Linear, Cationic Antimicrobial Peptides from Marine Mussels (Mytilus spp.)” (Marine Drugs, 2017)", "type_in_all_cases": "cell-based", "key": {"[1]": {"tested_on": "Acinetobacter baumannii ATCC 19606", "experiment": "MIC, broth microdilution", "protocol": "(§1) The following strains have been used in this study: Escherichia coli ATCC 25922, Staphylococcus aureus ATCC […], Vibrio anguillarum ATCC 43305, Pseudomonas aeruginosa ATCC 27853, Acinetobacter baumannii ATCC 19606, Bacillus subtilis ATCC 6051. Vibrio anguillarum ATCC 43305 was cultivated in tryptic soy broth (TSB, Becton Dickinson, Milan, Italy) implemented with 2% NaCl, all the other strains were grown in Müller-Hinton broth (MH, Becton Dickinson, Milan, Italy).\n(§2) The minimum inhibiting concentration (MIC) of each myticalin synthetic peptide was calculated using the broth microdilution method. Briefly, twofold serial dilutions of each peptide were prepared in appropriate growth medium and aliquoted in the wells of a round-bottom microtiter plates (Sarstedt, Nümbrecht, Germany). An overnight culture of each bacterial strain was diluted 1:50 in fresh growth medium and grown to an OD600nm ≈ 0.3. Each well was then inoculated with a standardized inoculum in order to achieve, in a final total volume of 100 μL, a final test concentration of about 5 × 10^5 CFU/mL. The plate was then sealed to minimize evaporation and incubated at 37 °C for 24 h. The day after, the MIC was identified as the lowest concentration of the peptide that impaired any visible bacterial growth."}, "[2]": {"tested_on": "Bacillus subtilis ATCC 6051", "experiment": "MIC, broth microdilution", "protocol": "as §1, §2"}, "[3]": {"tested_on": "Escherichia coli ATCC 25922", "experiment": "MIC, broth microdilution", "protocol": "as §1, §2"}, "[4]": {"tested_on": "Pseudomonas aeruginosa ATCC 27853", "experiment": "MIC, broth microdilution", "protocol": "as §1, §2"}, "[5]": {"tested_on": "Staphylococcus aureus ATCC 25923", "experiment": "MIC, broth microdilution", "protocol": "as §1, §2"}, "[6]": {"tested_on": "Vibrio anguillarum ATCC 43305", "experiment": "MIC, broth microdilution", "protocol": "as §1, §2"}, "[7]": {"tested_on": "tested bacterial strains (Gram-positive and Gram-negative)", "details": "for antimicrobial activity / spectrum in words: tested Gram-positive and Gram-negative strains", "protocol": "as §1, §2"}, "[8]": {"details": "Acinetobacter baumannii ATCC 19606, Müller-Hinton broth, about 5 × 10^5 CFU/mL, 37 °C, 24 h, mode of four independent experiments"}, "[9]": {"details": "Bacillus subtilis ATCC 6051, Müller-Hinton broth, about 5 × 10^5 CFU/mL, 37 °C, 24 h, mode of four independent experiments"}, "[10]": {"details": "Escherichia coli ATCC 25922, Müller-Hinton broth, about 5 × 10^5 CFU/mL, 37 °C, 24 h, mode of four independent experiments"}, "[11]": {"details": "Pseudomonas aeruginosa ATCC 27853, Müller-Hinton broth, about 5 × 10^5 CFU/mL, 37 °C, 24 h, mode of four independent experiments"}, "[12]": {"details": "Staphylococcus aureus ATCC 25923, Müller-Hinton broth, about 5 × 10^5 CFU/mL, 37 °C, 24 h, mode of four independent experiments"}, "[13]": {"details": "Vibrio anguillarum ATCC 43305, tryptic soy broth with 2% NaCl, about 5 × 10^5 CFU/mL, 37 °C, 24 h, mode of four independent experiments"}}, "note": "Where no end group is shown, it is not given here.", "data": [{"substance": "RRRRRYRYWRRGLTIQGRPKSLPLNTGD [Myticalin C9]", "values": [{"measurement": "Minimal inhibitory concentration (MIC)", "setting": "[1]; ATCC 19606, 24 h", "result": 2, "unit": "µM"}, {"measurement": "Minimal inhibitory concentration (MIC)", "setting": "[2]; ATCC 6051, 24 h", "result": 4, "unit": "µM"}, {"measurement": "Minimal inhibitory concentration (MIC)", "setting": "[3]; ATCC 25922, 24 h", "result": 4, "unit": "µM"}, {"measurement": "Minimal inhibitory concentration (MIC)", "setting": "[4]; ATCC 27853, 24 h", "result": 8, "unit": "µM"}, {"measurement": "Minimal inhibitory concentration (MIC)", "setting": "[5]; ATCC 25923, 24 h", "result": 2, "unit": "µM"}, {"measurement": "Minimal inhibitory concentration (MIC)", "setting": "[6]; ATCC 43305, 24 h", "result": ">32", "unit": "µM"}, {"measurement": "antimicrobial activity / spectrum in words", "setting": "[7]", "result": "broad spectrum of activity"}]}, {"substance": "WPRFPKPRKPTYPGPTYPGPTWPRPTWRRSATIDTEH [Myticalin D5]", "values": [{"measurement": "Minimal inhibitory concentration (MIC)", "setting": "[1]; ATCC 19606, 24 h", "result": ">32", "unit": "µM"}, {"measurement": "Minimal inhibitory concentration (MIC)", "setting": "[2]; ATCC 6051, 24 h", "result": ">32", "unit": "µM"}, {"measurement": "Minimal inhibitory concentration (MIC)", "setting": "[3]; ATCC 25922, 24 h", "result": ">32", "unit": "µM"}, {"measurement": "Minimal inhibitory concentration (MIC)", "setting": "[4]; ATCC 27853, 24 h", "result": ">32", "unit": "µM"}, {"measurement": "Minimal inhibitory concentration (MIC)", "setting": "[5]; ATCC 25923, 24 h", "result": ">32", "unit": "µM"}, {"measurement": "Minimal inhibitory concentration (MIC)", "setting": "[6]; ATCC 43305, 24 h", "result": ">32", "unit": "µM"}, {"measurement": "MIC toward all the tested bacterial strains", "setting": "[7]; 24 h", "result": "> 32", "unit": "µM"}]}, {"substance": "RRRRRFRRVIRRIRLPKYLTINTE [Myticalin C6]", "values": [{"measurement": "Minimal inhibitory concentration (MIC)", "setting": "[1]; ATCC 19606, 24 h", "result": 2, "unit": "µM"}, {"measurement": "Minimal inhibitory concentration (MIC)", "setting": "[2]; ATCC 6051, 24 h", "result": 32, "unit": "µM"}, {"measurement": "Minimal inhibitory concentration (MIC)", "setting": "[3]; ATCC 25922, 24 h", "result": 4, "unit": "µM"}, {"measurement": "Minimal inhibitory concentration (MIC)", "setting": "[4]; ATCC 27853, 24 h", "result": 32, "unit": "µM"}, {"measurement": "Minimal inhibitory concentration (MIC)", "setting": "[5]; ATCC 25923, 24 h", "result": 8, "unit": "µM"}, {"measurement": "Minimal inhibitory concentration (MIC)", "setting": "[6]; ATCC 43305, 24 h", "result": ">32", "unit": "µM"}, {"measurement": "antimicrobial activity / spectrum in words", "setting": "[7]", "result": "moderate antimicrobial activity"}]}, {"substance": "WGRRWRIRIPRLPRPWPPRPKWPRSATINTDQ [Myticalin D2]", "values": [{"measurement": "Minimal inhibitory concentration (MIC)", "setting": "[1]; ATCC 19606, 24 h", "result": 2, "unit": "µM"}, {"measurement": "Minimal inhibitory concentration (MIC)", "setting": "[2]; ATCC 6051, 24 h", "result": 2, "unit": "µM"}, {"measurement": "Minimal inhibitory concentration (MIC)", "setting": "[3]; ATCC 25922, 24 h", "result": 4, "unit": "µM"}, {"measurement": "Minimal inhibitory concentration (MIC)", "setting": "[4]; ATCC 27853, 24 h", "result": 4, "unit": "µM"}, {"measurement": "Minimal inhibitory concentration (MIC)", "setting": "[5]; ATCC 25923, 24 h", "result": "16 to 32", "unit": "µM"}, {"measurement": "Minimal inhibitory concentration (MIC)", "setting": "[6]; ATCC 43305, 24 h", "result": ">32", "unit": "µM"}, {"measurement": "antimicrobial activity / spectrum in words", "setting": "[7]", "result": "broad spectrum of activity"}]}, {"substance": "LRWTPTPSYPRYPTRSRGSRWSR-NH2 [Myticalin B1]", "values": [{"measurement": "Minimal inhibitory concentration (MIC)", "setting": "[1]; ATCC 19606, 24 h", "result": 8, "unit": "µM"}, {"measurement": "Minimal inhibitory concentration (MIC)", "setting": "[2]; ATCC 6051, 24 h", "result": 32, "unit": "µM"}, {"measurement": "Minimal inhibitory concentration (MIC)", "setting": "[3]; ATCC 25922, 24 h", "result": "8 to 16", "unit": "µM"}, {"measurement": "Minimal inhibitory concentration (MIC)", "setting": "[4]; ATCC 27853, 24 h", "result": ">32", "unit": "µM"}, {"measurement": "Minimal inhibitory concentration (MIC)", "setting": "[5]; ATCC 25923, 24 h", "result": ">32", "unit": "µM"}, {"measurement": "Minimal inhibitory concentration (MIC)", "setting": "[6]; ATCC 43305, 24 h", "result": ">32", "unit": "µM"}, {"measurement": "antimicrobial activity / spectrum in words", "setting": "[7]", "result": "moderate antimicrobial activity"}]}, {"substance": "YSWPRMPRIPRLPRYPRYPRYPRWPRWPRQPTIYA-NH2 [Myticalin A5]", "values": [{"measurement": "Minimal inhibitory concentration (MIC)", "setting": "[1]; [8]", "result": 4, "unit": "µM"}, {"measurement": "Minimal inhibitory concentration (MIC)", "setting": "[2]; [9]", "result": 4, "unit": "µM"}, {"measurement": "Minimal inhibitory concentration (MIC)", "setting": "[3]; [10]", "result": 2, "unit": "µM"}, {"measurement": "Minimal inhibitory concentration (MIC)", "setting": "[4]; [11]", "result": "4 to 8", "unit": "µM"}, {"measurement": "Minimal inhibitory concentration (MIC)", "setting": "[5]; [12]", "result": "8 to 16", "unit": "µM"}, {"measurement": "Minimal inhibitory concentration (MIC)", "setting": "[6]; [13]", "result": ">32", "unit": "µM"}]}, {"substance": "YSWPRMPRIPRLPRYPRYPRYPRWPRHPTIYA-NH2 [Myticalin A8]", "values": [{"measurement": "Minimal inhibitory concentration (MIC)", "setting": "[1]; [8]", "result": 1, "unit": "µM"}, {"measurement": "Minimal inhibitory concentration (MIC)", "setting": "[2]; [9]", "result": 4, "unit": "µM"}, {"measurement": "Minimal inhibitory concentration (MIC)", "setting": "[3]; [10]", "result": 1, "unit": "µM"}, {"measurement": "Minimal inhibitory concentration (MIC)", "setting": "[4]; [11]", "result": 8, "unit": "µM"}, {"measurement": "Minimal inhibitory concentration (MIC)", "setting": "[5]; [12]", "result": 16, "unit": "µM"}, {"measurement": "Minimal inhibitory concentration (MIC)", "setting": "[6]; [13]", "result": ">32", "unit": "µM"}, {"measurement": "antimicrobial activity / spectrum in words", "setting": "[7]", "result": "broad spectrum of activity"}]}]}
